Laboratory results: patent publication US20240400555A1 (Initial Therapeutics, Inc., priority 2023, published 2024)
Read-outs that look alike come from different tables or passages of the source.

Test system: MV-4-11 cells
Experiment: Cell Viability Assay in MV-4-11 Cells
Assay type: cell-based
Details: MV-4-11 cells, 72 h, Cell-Titer Glo, read-out: IC50
Outline: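 Luminescent ATP read-out (CellTiter-Glo) after 72 h compound treatment of MV-4-11 leukaemia cells (7,000 per well, IMDM plus 10% FBS). Values expressed relative to DMSO control and derived by four-parameter non-linear regression.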

SMILES | IC50 (Homo sapiens, MV4-11, 72 h) | IC50
COc1cc(C)c2c(N(C(=O)c3ccc(-c4nc(C)no4)cc3)[C@@H]3CCCNC3)nccc2c1 [Example 914, N-(6-methoxy-8-methyl-1-isoquinolyl)-4-(3-methyl-1,2,4-oxadiazol-5-yl)-N-[(3R)-3-piperidyl] benzamide] | 130 nM | 
Cc1cc(C)c2c(N(C(=O)c3ccc(-c4nc(C)no4)cc3)[C@@H]3CCCNC3)nccc2c1 [Example 915, N-(6,8-dimethyl-1-isoquinolyl)-4-(3-methyl-1,2,4-oxadiazol-5-yl)-N-[(3R)-3-piperidyl] benzamide] | 86 nM | 
Cc1cc(C)c2c(N(C(=O)c3ccc(-c4nc(C)no4)nc3)[C@@H]3CCCNC3)nccc2c1 [Example 916, N-(6,8-dimethyl-1-isoquinolyl)-6-(3-methyl-1,2,4-oxadiazol-5-yl)-N-[(3R)-3-piperidyl]pyridine-3-carboxamide] | 570 nM | 
Cc1nnc(-c2ccc(C(=O)N(c3nccc4cc(Cl)cc(C)c34)[C@@H]3CCCNC3)cn2)o1 [Example 917, N-(6-chloro-8-methyl-1-isoquinolyl)-6-(5-methyl-1,3,4-oxadiazol-2-yl)-N-[(3R)-3-piperidyl]pyridine-3-carboxamide] | 110 nM | 
Cc1nnc(-c2ccc(C(=O)N(c3nccc4cc(F)cc(C)c34)[C@@H]3CCCNC3)cn2)o1 [Example 918, N-(6-fluoro-8-methyl-1-isoquinolyl)-6-(5-methyl-1,3,4-oxadiazol-2-yl)-N-[(3R)-3-piperidyl]pyridine-3-carboxamide] | 170 nM | 
Cc1nnc(-c2ccc(C(=O)N(c3nccc4scc(C)c34)[C@@H]3CCCNC3)cn2)o1 [Example 919, 6-(5-methyl-1,3,4-oxadiazol-2-yl)-N-(3-methylthieno[3,2-c]pyridin-4-yl)-N-[(3R)-3-piperidyl]pyridine-3-carboxamide] | 160 nM | 
COCCn1cc(-c2ccc(C(=O)N(c3nccc4cc(F)cc(C)c34)[C@@H]3CCCNC3)cn2)nn1 [Example 920, N-(6-fluoro-8-methyl-1-isoquinolyl)-6-[1-(2-methoxyethyl)triazol-4-yl]-N-[(3R)-3-piperidyl]pyridine-3-carboxamide] | 84 nM | 
COCCn1cc(-c2ccc(C(=O)N(c3nccc4cc(Cl)cc(C)c34)[C@@H]3CCCNC3)cn2)nn1 [Example 921, N-(6-chloro-8-methyl-1-isoquinolyl)-6-[1-(2-methoxyethyl)triazol-4-yl]-N-[(3R)-3-piperidyl]pyridine-3-carboxamide] | 52 nM | 
Cc1cccc2ccnc(N(C(=O)c3ccc(-c4cncc5c4OCCC5)cc3)[C@@H]3CCCNC3)c12 [Example 922, (R)-4-(3,4-dihydro-2H-pyrano[3,2-c]pyridin-8-yl)-N-(8-methylisoquinolin-1-yl)-N-(piperidin-3-yl)benzamide] | 420 nM | 
Cc1csc2ccnc(N(C(=O)c3ccc(-c4nnn5c4CN(C)CC5)cc3F)[C@@H]3CCCNC3)c12 [Example 923, 2-fluoro-4-(5-methyl-6,7-dihydro-4H-triazolo[1,5-a]pyrazin-3-yl)-N-(3-methylthieno[3,2-c]pyridin-4-yl)-N-[(3R)-3-piperidyl]benzamide] | > 1000 nM | 
Cc1cccnc1N(C(=O)c1ccc(Nc2ncccn2)cc1)[C@@H]1CCCNC1 [Example 924, (R)—N-(3-methylpyridin-2-yl)-N-(piperidin-3-yl)-4-(pyrimidin-2-ylamino)benzamide] | 85 nM | 
O=C(c1ccc(Nc2ncccn2)cc1)N(c1ncccc1Cl)[C@@H]1CCCNC1 [Example 925, (R)—N-(3-chloropyridin-2-yl)-N-(piperidin-3-yl)-4-(pyrimidin-2-ylamino)benzamide] | 32 nM | 
Cn1ccc2ccnc(N(C(=O)c3ccc(Nc4ncccn4)cc3F)[C@@H]3CCCNC3)c21 [Example 926, (R)-2-fluoro-N-(1-methyl-1H-pyrrolo[2,3-c]pyridin-7-yl)-N-(piperidin-3-yl)-4-(pyrimidin-2-ylamino)benzamide] | 75 nM | 
O=C(c1ccc(Nc2ncccn2)cc1F)N(c1nccc2ccccc12)[C@@H]1CCCNC1 [Example 927, (R)-2-fluoro-N-(isoquinolin-1-yl)-N-(piperidin-3-yl)-4-(pyrimidin-2-ylamino)benzamide] | 200 nM | 
Cc1cccc2ccnc(N(C(=O)c3ccc(N(C)c4ncccn4)cc3F)[C@@H]3CCCNC3)c12 [Example 928, (R)-2-fluoro-4-(methyl(pyrimidin-2-yl)amino)-N-(8-methylisoquinolin-1-yl)-N-(piperidin-3-yl)benzamide] | 250 nM | 
COC(=O)c1cnc(Nc2ccc(C(=O)N(c3nccc4cccc(C)c34)[C@@H]3CCCNC3)c(F)c2)nc1 [Example 929, methyl (R)-2-((3-fluoro-4-((8-methylisoquinolin-1-yl)(piperidin-3-yl)carbamoyl)phenyl)amino)pyrimidine-5-carboxylate] | 110 nM | 
C=C(C)c1cccnc1N(C(=O)c1ccc(Nc2ncccn2)cc1F)[C@@H]1CCCNC1 [Example 930, (R)-2-fluoro-N-(piperidin-3-yl)-N-(3-(prop-1-en-2-yl)pyridin-2-yl)-4-(pyrimidin-2-ylamino)benzamide] | 400 nM | 
Cc1csc2ccnc(N(C(=O)c3ccc(Nc4ncccn4)cc3F)[C@@H]3CCCNC3)c12 [Example 931, (R)-2-fluoro-N-(3-methylthieno[3,2-c]pyridin-4-yl)-N-(piperidin-3-yl)-4-(pyrimidin-2-ylamino)benzamide] |  | 170 nM
Cc1cccc2ccnc(N(C(=O)c3ccc(Nc4nccc(-c5ccc6[nH]ncc6c5)n4)cc3F)[C@@H]3CCCNC3)c12 [Example 932, (R)-4-((4-(1H-indazol-5-yl)pyrimidin-2-yl)amino)-2-fluoro-N-(8-methylisoquinolin-1-yl)-N-(piperidin-3-yl)benzamide] | 20 nM | 
CC(=O)N1CCN(c2ccnc(Nc3ccc(C(=O)N(c4nccc5cccc(C)c45)[C@@H]4CCCNC4)c(F)c3)n2)CC1 [Example 933, (R)-4-((4-(4-acetylpiperazin-1-yl)pyrimidin-2-yl)amino)-2-fluoro-N-(8-methylisoquinolin-1-yl)-N-(piperidin-3-yl)benzamide] | 180 nM | 
Cc1cccc2ccnc(N(C(=O)c3ccc(Nc4nccc(CN5CCN(C)CC5)n4)cc3F)[C@@H]3CCCNC3)c12 [Example 934, (R)-2-fluoro-N-(8-methylisoquinolin-1-yl)-4-((4-((4-methylpiperazin-1-yl)methyl)pyrimidin-2-yl)amino)-N-(piperidin-3-yl)benzamide] | 120 nM | 
Cc1cccc2ccnc(N(C(=O)c3ccc(Nc4nccc(N5CCS(=O)(=O)CC5)n4)cc3F)[C@@H]3CCCNC3)c12 [Example 935, (R)-4-((4-(1,1-dioxidothiomorpholino)pyrimidin-2-yl)amino)-2-fluoro-N-(8-methylisoquinolin-1-yl)-N-(piperidin-3-yl)benzamide] | 63 nM | 
Cc1cccc2ccnc(N(C(=O)c3ccc(Nc4nccc(N5CCC(C)(O)CC5)n4)cc3F)[C@@H]3CCCNC3)c12 [Example 936, (R)-2-fluoro-4-(4-(4-hydroxy-4-methylpiperidin-1-yl)pyrimidin-2-ylamino)-N-(8-methylisoquinolin-1-yl)-N-(piperidin-3-yl)benzamide] | 24 nM | 
Cc1cccc2ccnc(N(C(=O)c3ccc(Nc4nccc(N5CCOCC5=O)n4)cc3F)[C@@H]3CCCNC3)c12 [Example 937, (R)-2-fluoro-N-(8-methylisoquinolin-1-yl)-4-(4-(3-oxomorpholino)pyrimidin-2-ylamino)-N-(piperidin-3-yl)benzamide] | 50 nM | 
